Assay results: DBAASP
Values after ≈ are worked out from the molar mass of the structure shown. Values belong to the molecule of their own block, whether it stands above or below them.

How the values were obtained:
Test in all cases: ≥ marks a high value that may be exact or a test limit, other limits are often not marked, values filed in µg/mL are converted to µM
[1] = test system: Escherichia coli ATCC 25922
Micrococcus luteus = test system: Micrococcus luteus
[2] = test system: Pseudomonas aeruginosa ATCC 15692
Saccharomyces cerevisiae = test system: Saccharomyces cerevisiae
[3] = test system: Staphylococcus aureus ATCC 25923
[4] = test system: Acinetobacter baumannii NM35
[5] = test system: Acinetobacter baumannii NM8
[6] = test system: Candida albicans ATCC 90028
[7] = test system: Escherichia coli ATCC 25726
[8] = test system: Streptococcus gordonii ATCC 10558
[9] = test system: Streptococcus mutans GS-5
[10] = test system: Streptococcus mutans UA159
[11] = test system: Streptococcus sanguinis ATCC 49295
[12] = test system: Clavibacter michiganensis subsp. michiganensis DSM 46294
[13] = test system: Pectobacterium carotovorum subsp. carotovorum DSM 30168
[14] = test system: Pseudomonas corrugata DSM 7228
[15] = test system: Pseudomonas syringae pv. syringae DSM 10604
[16] = test system: Pseudomonas syringae pv. tomato DC3000
[17] = test system: Xanthomonas vesicatoria DSM 50861
Bacillus subtilis = test system: Bacillus subtilis
Candida albicans = test system: Candida albicans
Escherichia coli JM109 = test system: Escherichia coli JM109
Klebsiella pneumoniae = test system: Klebsiella pneumoniae
Bacillus cereus = test system: Bacillus cereus
Escherichia coli = test system: Escherichia coli
Staphylococcus aureus = test system: Staphylococcus aureus

SMILES: CC[C@H](C)[C@H](NC(=O)[C@@H](N)Cc1ccccc1)C(=O)NCC(=O)N[C@@H](C)C(=O)N[C@@H](CC(C)C)C(=O)N[C@@H](CC(C)C)C(=O)N[C@@H](CCCN=C(N)N)C(=O)N1CCC[C@H]1C(=O)N[C@@H](C)C(=O)N[C@@H](CC(C)C)C(=O)N[C@@H](CCCCN)C(=O)N[C@@H](CC(C)C)C(=O)N[C@@H](CC(C)C)C(=O)N[C@@H](C)C(=O)NCC(=O)N[C@@H](CCCCN)C(N)=O [FIGALLRPALKLLAGK]
MIC [1]: 32 µM (≈ 53.8 µg/mL) | MIC (Micrococcus luteus): 4 µM (≈ 6.72 µg/mL) | MIC [2]: ≥ 256 µM | MIC (Saccharomyces cerevisiae): ≥ 128 µM | MIC [3]: 16 µM (≈ 26.9 µg/mL)

SMILES: CC[C@H](C)[C@H](NC(=O)CNC(=O)[C@H](CCCCN)NC(=O)[C@@H](NC(=O)[C@H](CC(C)C)NC(=O)[C@H](CO)NC(=O)CNC(=O)[C@H](CC(C)C)NC(=O)CNC(=O)[C@H](CCCCN)NC(=O)[C@H](CCCCN)NC(=O)[C@H](Cc1ccccc1)NC(=O)[C@@H](NC(=O)[C@H](CCCCN)NC(=O)[C@H](CCCCN)NC(=O)[C@H](CC(C)C)NC(=O)CN)[C@@H](C)CC)C(C)C)C(=O)N[C@@H](C)C(=O)N[C@@H](C)C(=O)N[C@@H](Cc1cnc[nH]1)C(=O)N[C@H](C(=O)N[C@@H](C)C(=O)N[C@@H](CO)C(N)=O)C(C)C [GLKKIFKKGLGSLVKGIAAHVAS]
MIC [4]: 2.5 µM (≈ 5.8 µg/mL) | MIC [5]: 5 µM (≈ 11.6 µg/mL) | MIC [6]: 10 µM (≈ 23.2 µg/mL) | MIC [7]: 10 µM (≈ 23.2 µg/mL) | MIC [3]: 250 µM (≈ 580 µg/mL)

SMILES: CC(C)C[C@H](NC(=O)[C@H](C)NC(=O)[C@H](CCCCN)NC(=O)[C@H](CCCCN)NC(=O)[C@H](C)NC(=O)[C@H](Cc1ccccc1)NC(=O)[C@H](CCCN=C(N)N)NC(=O)[C@@H](N)CC(C)C)C(=O)N[C@@H](CCCCN)C(=O)N[C@@H](CCCCN)C(=O)N[C@@H](CC(C)C)C(=O)N[C@@H](Cc1ccccc1)C(N)=O [LRFAKKALKKLF]
MIC [12]: 1.71 µM (≈ 2.5 µg/mL) | MIC [13]: 6.84 µM (≈ 9.99 µg/mL) | MIC [14]: 0.684 µM (≈ 0.999 µg/mL) | MIC [15]: 0.171 µM (≈ 0.25 µg/mL) | MIC [16]: 0.171 µM (≈ 0.25 µg/mL) | MIC [17]: 1.71 µM (≈ 2.5 µg/mL)

SMILES: CC(C)C[C@H](NC(=O)[C@@H](N)Cc1ccccc1)C(=O)NCC(=O)N[C@@H](CCCCN)C(=O)N[C@H](C(=O)N[C@@H](Cc1ccccc1)C(=O)N[C@@H](CCCCN)C(=O)N[C@@H](CCCCN)C(=O)N[C@H](C(=O)N[C@@H](CO)C(=O)N[C@@H](CCCCN)C(=O)N[C@H](C(=O)N[C@@H](Cc1ccccc1)C(=O)N1CCC[C@H]1C(=O)N[C@@H](C)C(=O)N[C@H](C(=O)N[C@@H](Cc1ccccc1)C(=O)NCC(=O)N[C@@H](CCCCN)C(=O)N[C@H](C(=O)O)C(C)C)C(C)C)C(C)C)C(C)C)C(C)C [FLGKVFKKVSKVFPAVFGKV]
MIC (Bacillus cereus): ≥ 57.5 µM | MIC (Escherichia coli): 14.4 µM (≈ 32 µg/mL) | MIC (Staphylococcus aureus): > 57.5 µM

The remaining lines, values ahead:

MIC [8]: 20.3 µM (≈ 49.8 µg/mL) | MIC [9]: 5.06 µM (≈ 12.4 µg/mL) | MIC [10]: 4.34 µM (≈ 10.7 µg/mL) | MIC [11]: ≥ 40.5 µM
SMILES: CC(C)C[C@H](NC(=O)[C@H](CCCN=C(N)N)NC(=O)[C@H](Cc1ccccc1)NC(=O)[C@H](Cc1ccccc1)NC(=O)[C@@H](N)[C@@H](C)O)C(=O)N[C@@H](Cc1ccccc1)C(=O)N[C@@H](CC(N)=O)C(=O)N[C@@H](CCCN=C(N)N)C(=O)NCC(=O)N[C@@H](CCCN=C(N)N)C(=O)N[C@@H](CCCN=C(N)N)C(=O)N[C@@H](CCCN=C(N)N)C(=O)N[C@@H](CCCN=C(N)N)C(=O)N[C@@H](CO)C(=O)N[C@H](C(=O)N[C@@H](CCC(N)=O)C(=O)N[C@@H](Cc1c[nH]c2ccccc12)C(=O)N[C@@H](CS)C(=O)N[C@@H](C)C(=O)O)C(C)C [TFFRLFNRGRRRRSVQWCA]

MIC [8]: ≥ 155 µM | MIC [9]: ≥ 155 µM | MIC [10]: ≥ 155 µM | MIC [11]: ≥ 155 µM
SMILES: CC(C)C[C@H](NC(=O)[C@H](CCCN=C(N)N)NC(=O)[C@H](Cc1ccccc1)NC(=O)[C@H](Cc1ccccc1)NC(=O)[C@@H](NC(=O)[C@@H](N)CO)[C@@H](C)O)C(=O)N[C@@H](Cc1ccccc1)C(=O)N[C@@H](CC(N)=O)C(=O)N[C@@H](CCCN=C(N)N)C(=O)N[C@@H](CO)C(=O)N[C@@H](Cc1ccccc1)C(=O)N[C@H](C(=O)N[C@@H](CCC(N)=O)C(=O)O)[C@@H](C)O [STFFRLFNRSFTQ]

MIC [8]: ≥ 145 µM | MIC [9]: ≥ 145 µM | MIC [10]: ≥ 145 µM | MIC [11]: ≥ 145 µM
SMILES: CC(C)C[C@H](NC(=O)[C@H](CCCN=C(N)N)NC(=O)[C@H](Cc1ccccc1)NC(=O)[C@H](Cc1ccccc1)NC(=O)[C@@H](NC(=O)[C@H](CO)NC(=O)[C@@H](N)CC(C)C)[C@@H](C)O)C(=O)N[C@@H](Cc1ccccc1)C(=O)N[C@@H](CC(N)=O)C(=O)N[C@@H](CCCN=C(N)N)C(=O)N[C@@H](CO)C(=O)N[C@@H](Cc1ccccc1)C(=O)N[C@H](C(=O)N[C@@H](CCC(N)=O)C(=O)O)[C@@H](C)O [LSTFFRLFNRSFTQ]

MIC [12]: 3.16 µM (≈ 5 µg/mL) | MIC [13]: 6.33 µM (≈ 9.99 µg/mL) | MIC [14]: 0.316 µM (≈ 0.5 µg/mL) | MIC [15]: 0.0633 µM (≈ 0.1 µg/mL) | MIC [16]: 6.33 µM (≈ 9.99 µg/mL) | MIC [17]: 3.16 µM (≈ 5 µg/mL)
SMILES: CC[C@H](C)[C@H](NC(=O)[C@H](CC(C)C)NC(=O)[C@H](CCCN=C(N)N)NC(=O)[C@H](CCCCN)NC(=O)[C@@H](NC(=O)[C@H](CC(C)C)NC(=O)[C@H](CCCCN)NC(=O)[C@H](CCCCN)NC(=O)[C@H](CCCN=C(N)N)NC(=O)[C@H](CCCCN)NC(=O)[C@H](CCCCN)NC(=O)[C@@H](N)CCCN=C(N)N)[C@@H](C)CC)C(N)=O [RKKRKKLIKRLI]

MIC [8]: 16.6 µM (≈ 49.8 µg/mL) | MIC [9]: 4.43 µM (≈ 13.3 µg/mL) | MIC [10]: 3.55 µM (≈ 10.7 µg/mL) | MIC [11]: ≥ 33.1 µM
SMILES: CC(C)C[C@H](NC(=O)[C@H](CCCN=C(N)N)NC(=O)[C@H](Cc1ccccc1)NC(=O)[C@H](Cc1ccccc1)NC(=O)[C@@H](NC(=O)[C@@H](N)CO)[C@@H](C)O)C(=O)N[C@@H](Cc1ccccc1)C(=O)N[C@@H](CC(N)=O)C(=O)N[C@@H](CCCN=C(N)N)C(=O)N[C@@H](CO)C(=O)N[C@@H](Cc1ccccc1)C(=O)N[C@H](C(=O)N[C@@H](CCC(N)=O)C(=O)NCC(=O)N[C@@H](CCCN=C(N)N)C(=O)N[C@@H](CCCN=C(N)N)C(=O)N[C@@H](CCCN=C(N)N)C(=O)N[C@@H](CCCN=C(N)N)C(=O)N[C@@H](CO)C(=O)N[C@H](C(=O)N[C@@H](CCC(N)=O)C(=O)N[C@@H](Cc1c[nH]c2ccccc12)C(=O)N[C@@H](CS)C(=O)N[C@@H](C)C(=O)O)C(C)C)[C@@H](C)O [STFFRLFNRSFTQGRRRRSVQWCA]

MIC (Bacillus subtilis): 10 µM (≈ 32.1 µg/mL) | MIC (Candida albicans): 50 µM (≈ 160 µg/mL) | MIC (Escherichia coli JM109): 28.3 µM (≈ 90.7 µg/mL) | MIC (Klebsiella pneumoniae): 80 µM (≈ 256 µg/mL) | MIC (Saccharomyces cerevisiae): 28.3 µM (≈ 90.7 µg/mL)
SMILES: CC[C@H](C)[C@H](NC(=O)[C@H](CCCCN)NC(=O)[C@H](CCCCN)NC(=O)[C@H](Cc1ccccc1)NC(=O)[C@@H](NC(=O)[C@H](CCCCN)NC(=O)[C@H](Cc1c[nH]c2ccccc12)NC(=O)[C@@H](N)CCCN=C(N)N)[C@@H](C)CC)C(=O)N[C@@H](CCC(=O)O)C(=O)N[C@@H](CCCCN)C(=O)N[C@@H](CCSC)C(=O)NCC(=O)NCC(=O)N[C@@H](CO)C(=O)N[C@@H](Cc1ccc(O)cc1)C(=O)N[C@@H](CS)C(=O)N[C@@H](CC(N)=O)C(=O)N[C@@H](CCCN=C(N)N)C(=O)N[C@@H](CCCN=C(N)N)C(=O)N[C@H](C(=O)NCC(=O)N[C@@H](CCCCN)C(=O)N[C@@H](CS)C(=O)N[C@@H](CCC(N)=O)C(=O)N[C@@H](CCCN=C(N)N)C(=O)N[C@@H](CCSC)C(=O)O)[C@@H](C)O [RWKIFKKIEKMGGSYCNRRTGKCQRM]
